# Measured values as given in ChEMBL document CHEMBL6078645, “Expanding the Solvent/Protein Region Occupation of the Non-Nucleoside Reverse Transcriptase Inhibitor Binding Pocket for Improved Broad-Spectrum Anti-HIV-1 Efficacy: from Rigid Phenyl-Diarylpyrimidines to Flexible Hydrophilic Piperidine-Diarylpyrimidines” (J Med Chem, 2024).
# Legend:
# [1] = target: T1, Human immunodeficiency virus type 1 reverse transcriptase (Human immunodeficiency virus 1, UniProt Q72547); assay: Inhibition of HIV-1 reverse transcriptase
# [2] = test system: Human immunodeficiency virus 1; assay: Antiviral activity against HIV-1 harboring Y188L mutant infected in human MT4 cells assessed as protection against virus-induced cytopathic effect incubated for 5 days by MTT assay; format: functional, organism-based; details: Human immunodeficiency virus 1, MT4, 120 h
# [3] = test system: Human immunodeficiency virus 1; assay: Antiviral activity against HIV-1 harboring F227L/V106A double mutant infected in human MT4 cells assessed as protection against virus-induced cytopathic effect incubated for 5 days by MTT assay; format: functional, organism-based; details: Human immunodeficiency virus 1, MT4, 120 h
# [4] = test system: Human immunodeficiency virus 1; assay: Antiviral activity against HIV-1 harboring RES056 mutant infected in human MT4 cells assessed as protection against virus-induced cytopathic effect incubated for 5 days by MTT assay; format: functional, organism-based; details: Human immunodeficiency virus 1, MT4, 120 h
# [5] = Cytotoxicity against human MT4 cells assessed as reduction in cell viability incubated for 5 days by MTT assay; format: toxicity, cell-based; details: MT4 cells, time 5 day
# [6] = Selectivity index, ratio of CC50 for cytotoxicity against human MT4 cells assessed as reduction in cell viability to EC50 for antiviral activity against wild type HIV-1 IIIB infected in human MT4 cells assessed as protection against virus-induced cytopathic effect; format: toxicity, cell-based; details: MT4 cells, read-out: Ratio CC50/EC50
# [7] = test system: Human immunodeficiency virus 1; assay: Antiviral activity against HIV-1 harboring L100I mutant infected in human MT4 cells assessed as protection against virus-induced cytopathic effect incubated for 5 days by MTT assay; format: functional, organism-based; details: Human immunodeficiency virus 1, MT4, 120 h
# [8] = test system: Human immunodeficiency virus 1; assay: Antiviral activity against HIV-1 harboring K103N mutant infected in human MT4 cells assessed as protection against virus-induced cytopathic effect incubated for 5 days by MTT assay; format: functional, organism-based; details: Human immunodeficiency virus 1, MT4, 120 h
# [9] = test system: Human immunodeficiency virus 1; assay: Antiviral activity against HIV-1 harboring Y181C mutant infected in human MT4 cells assessed as protection against virus-induced cytopathic effect incubated for 5 days by MTT assay; format: functional, organism-based; details: Human immunodeficiency virus 1, MT4, 120 h
# [10] = test system: Human immunodeficiency virus 1; assay: Antiviral activity against HIV-1 harboring E138K mutant infected in human MT4 cells assessed as protection against virus-induced cytopathic effect incubated for 5 days by MTT assay; format: functional, organism-based; details: Human immunodeficiency virus 1, MT4, 120 h
# [11] = target: T1, Human immunodeficiency virus type 1 reverse transcriptase; assay: Inhibition of wildtype recombinant HIV-1 Reverse transcriptase incubated for 40 mins by spectrofluorometric analysis
# Cytochrome P450 1A2 = target: T2, Cytochrome P450 1A2 (Homo sapiens, UniProt P05177); assay: Inhibition of CYP1A2 in human liver microsome preincubated with compound for 10 minutes followed NADPH addition and measured after 15 mins by LC-MS/MS analysis; format: ADME, microsomes
# T2 sequence (P05177 whole entry): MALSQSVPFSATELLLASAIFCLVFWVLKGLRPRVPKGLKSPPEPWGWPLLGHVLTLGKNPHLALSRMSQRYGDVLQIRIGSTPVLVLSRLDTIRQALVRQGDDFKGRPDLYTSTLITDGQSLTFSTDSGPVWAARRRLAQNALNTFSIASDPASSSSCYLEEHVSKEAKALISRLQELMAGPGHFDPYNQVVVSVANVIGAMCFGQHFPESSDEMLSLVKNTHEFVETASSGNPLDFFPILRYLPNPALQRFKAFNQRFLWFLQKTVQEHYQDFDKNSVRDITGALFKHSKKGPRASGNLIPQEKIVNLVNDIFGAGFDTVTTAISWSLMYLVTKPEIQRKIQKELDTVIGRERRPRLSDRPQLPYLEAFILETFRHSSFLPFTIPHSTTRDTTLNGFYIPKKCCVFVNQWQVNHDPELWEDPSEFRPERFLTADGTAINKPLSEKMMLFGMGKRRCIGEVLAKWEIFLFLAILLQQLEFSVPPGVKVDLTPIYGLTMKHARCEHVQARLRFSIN
# Cytochrome P450 2C19 = Cytochrome P450 2C19 (Homo sapiens, UniProt P33261); assay: Inhibition of CYP2C19 in human liver microsome preincubated with compound for 10 minutes followed NADPH addition and measured after 15 mins by LC-MS/MS analysis; format: ADME, microsomes
# Sequence of Cytochrome P450 2C19 (P33261 whole entry): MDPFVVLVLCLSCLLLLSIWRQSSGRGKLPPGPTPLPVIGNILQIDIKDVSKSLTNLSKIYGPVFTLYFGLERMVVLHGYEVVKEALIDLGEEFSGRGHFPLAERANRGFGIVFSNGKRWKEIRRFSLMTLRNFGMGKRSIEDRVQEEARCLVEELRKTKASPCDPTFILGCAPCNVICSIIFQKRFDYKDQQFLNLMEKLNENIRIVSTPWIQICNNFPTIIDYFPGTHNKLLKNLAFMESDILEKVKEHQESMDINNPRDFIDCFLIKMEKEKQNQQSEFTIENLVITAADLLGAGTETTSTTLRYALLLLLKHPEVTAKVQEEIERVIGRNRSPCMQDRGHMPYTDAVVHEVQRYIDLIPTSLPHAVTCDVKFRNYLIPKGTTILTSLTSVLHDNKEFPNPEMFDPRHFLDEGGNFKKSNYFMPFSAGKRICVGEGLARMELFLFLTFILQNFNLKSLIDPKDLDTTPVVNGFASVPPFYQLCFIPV
# Cytochrome P450 2C9 = Cytochrome P450 2C9 (Homo sapiens, UniProt P11712); assay: Inhibition of CYP2C9 in human liver microsome preincubated with compound for 10 minutes followed NADPH addition and measured after 15 mins by LC-MS/MS analysis; format: ADME, microsomes
# Sequence of Cytochrome P450 2C9 (P11712 whole entry): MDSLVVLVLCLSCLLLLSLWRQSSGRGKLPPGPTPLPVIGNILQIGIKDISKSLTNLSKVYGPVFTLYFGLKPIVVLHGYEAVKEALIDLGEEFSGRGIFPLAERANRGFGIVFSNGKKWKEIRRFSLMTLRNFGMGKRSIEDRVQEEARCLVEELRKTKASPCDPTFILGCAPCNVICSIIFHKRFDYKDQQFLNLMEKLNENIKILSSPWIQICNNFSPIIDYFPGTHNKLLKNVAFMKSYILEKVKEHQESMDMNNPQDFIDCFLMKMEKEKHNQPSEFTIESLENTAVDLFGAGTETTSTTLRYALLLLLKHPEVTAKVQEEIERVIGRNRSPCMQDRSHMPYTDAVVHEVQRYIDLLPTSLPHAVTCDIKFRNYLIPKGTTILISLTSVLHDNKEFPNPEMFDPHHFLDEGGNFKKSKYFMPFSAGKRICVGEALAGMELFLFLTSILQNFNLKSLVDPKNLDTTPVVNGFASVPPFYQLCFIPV
# Cytochrome P450 2D6 = Cytochrome P450 2D6 (Homo sapiens, UniProt P10635); assay: Inhibition of CYP2D6 in human liver microsome preincubated with compound for 10 minutes followed NADPH addition and measured after 15 mins by LC-MS/MS analysis; format: ADME, microsomes
# Sequence of Cytochrome P450 2D6 (P10635 whole entry): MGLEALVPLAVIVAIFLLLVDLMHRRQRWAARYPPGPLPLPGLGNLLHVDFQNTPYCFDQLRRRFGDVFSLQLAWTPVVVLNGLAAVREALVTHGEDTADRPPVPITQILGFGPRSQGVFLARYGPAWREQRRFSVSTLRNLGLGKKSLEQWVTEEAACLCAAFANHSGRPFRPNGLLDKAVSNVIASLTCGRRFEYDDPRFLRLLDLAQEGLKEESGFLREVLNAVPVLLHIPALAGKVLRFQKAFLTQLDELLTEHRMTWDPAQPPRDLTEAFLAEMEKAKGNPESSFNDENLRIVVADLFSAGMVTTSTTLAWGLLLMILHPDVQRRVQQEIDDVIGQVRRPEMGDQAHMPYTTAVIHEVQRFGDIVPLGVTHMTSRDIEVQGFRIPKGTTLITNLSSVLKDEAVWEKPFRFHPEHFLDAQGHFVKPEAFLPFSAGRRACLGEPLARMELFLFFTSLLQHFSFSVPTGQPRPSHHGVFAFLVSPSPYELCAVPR
# Cytochrome P450 3A4 [12] = target: T3, Cytochrome P450 3A4 (Homo sapiens, UniProt P08684); assay: Inhibition of CYP3A4 in human liver microsome using midazolam as substrate preincubated with compound for 10 minutes followed NADPH addition and measured after 15 mins by LC-MS/MS analysis; format: ADME, microsomes
# T3 sequence (P08684 whole entry): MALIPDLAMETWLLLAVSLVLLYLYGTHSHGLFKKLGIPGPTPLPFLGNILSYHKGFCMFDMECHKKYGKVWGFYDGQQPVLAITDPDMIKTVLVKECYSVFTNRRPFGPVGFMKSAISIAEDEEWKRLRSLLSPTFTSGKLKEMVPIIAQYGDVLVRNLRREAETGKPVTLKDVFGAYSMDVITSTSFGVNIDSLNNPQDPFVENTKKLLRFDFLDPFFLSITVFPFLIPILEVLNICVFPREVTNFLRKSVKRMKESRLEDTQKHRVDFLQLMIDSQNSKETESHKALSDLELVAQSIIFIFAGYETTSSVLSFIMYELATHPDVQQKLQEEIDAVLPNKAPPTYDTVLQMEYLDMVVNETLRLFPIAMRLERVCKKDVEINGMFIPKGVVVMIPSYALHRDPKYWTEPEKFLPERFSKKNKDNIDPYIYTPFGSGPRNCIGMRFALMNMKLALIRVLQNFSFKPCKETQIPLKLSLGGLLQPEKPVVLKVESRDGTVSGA
# Cytochrome P450 3A4 [13] = target: T3, Cytochrome P450 3A4; assay: Inhibition of CYP3A4 in human liver microsome using testosterone as substrate preincubated with compound for 10 minutes followed NADPH addition and measured after 15 mins by LC-MS/MS analysis; format: ADME, microsomes
# [14] = target: Voltage-gated inwardly rectifying potassium channel KCNH2 (Homo sapiens, UniProt Q12809); assay: Inhibition of hERG potassium channel stably expressed in CHO cells at -80 mV holding potential by whole-cell patch-clamp analysis; format: toxicity, cell-based
# Sequence of Voltage-gated inwardly rectifying potassium channel KCNH2 (Q12809 whole entry): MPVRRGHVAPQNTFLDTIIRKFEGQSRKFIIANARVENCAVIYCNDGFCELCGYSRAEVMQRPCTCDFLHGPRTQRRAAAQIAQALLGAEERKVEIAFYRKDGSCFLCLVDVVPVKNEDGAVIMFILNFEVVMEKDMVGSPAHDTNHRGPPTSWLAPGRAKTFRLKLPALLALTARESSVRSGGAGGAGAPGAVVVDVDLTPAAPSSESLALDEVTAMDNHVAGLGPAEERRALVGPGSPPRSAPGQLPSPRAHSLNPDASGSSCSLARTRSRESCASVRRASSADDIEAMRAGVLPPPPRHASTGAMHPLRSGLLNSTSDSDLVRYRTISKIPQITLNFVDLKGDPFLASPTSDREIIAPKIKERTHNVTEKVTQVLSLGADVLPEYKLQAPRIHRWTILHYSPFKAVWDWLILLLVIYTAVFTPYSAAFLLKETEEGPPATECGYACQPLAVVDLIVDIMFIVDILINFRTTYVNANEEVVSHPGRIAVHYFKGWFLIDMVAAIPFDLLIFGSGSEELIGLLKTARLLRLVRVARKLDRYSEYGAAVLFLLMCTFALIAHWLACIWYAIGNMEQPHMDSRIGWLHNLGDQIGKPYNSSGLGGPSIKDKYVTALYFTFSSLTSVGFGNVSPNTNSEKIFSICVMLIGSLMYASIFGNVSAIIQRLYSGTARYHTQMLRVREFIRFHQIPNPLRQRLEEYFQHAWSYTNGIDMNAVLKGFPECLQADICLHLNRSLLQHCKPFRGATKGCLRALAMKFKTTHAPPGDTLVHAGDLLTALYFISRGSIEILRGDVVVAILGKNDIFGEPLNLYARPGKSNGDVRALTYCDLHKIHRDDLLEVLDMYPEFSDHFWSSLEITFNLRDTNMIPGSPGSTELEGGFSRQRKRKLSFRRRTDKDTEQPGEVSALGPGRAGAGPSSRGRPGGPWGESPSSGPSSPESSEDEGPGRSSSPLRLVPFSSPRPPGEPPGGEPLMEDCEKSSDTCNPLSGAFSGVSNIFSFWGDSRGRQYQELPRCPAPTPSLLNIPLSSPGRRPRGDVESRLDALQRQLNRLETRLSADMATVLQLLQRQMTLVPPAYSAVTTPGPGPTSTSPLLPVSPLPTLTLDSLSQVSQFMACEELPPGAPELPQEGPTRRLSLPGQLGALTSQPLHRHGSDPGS
# [15] = Solubility of compound in phosphate buffer at pH 2 incubated for 24 hrs by HPLC analysis; format: physicochemical
# [16] = Solubility of compound in phosphate buffer at pH 7 incubated for 24 hrs by HPLC analysis; format: physicochemical
# [17] = Solubility of compound in phosphate buffer at pH 7.4 incubated for 24 hrs by HPLC analysis; format: physicochemical
# [18] = Solubility of compound incubated for 24 hrs by HPLC analysis; format: physicochemical
# [19] = Acute toxicity in SPF ICR mouse at 2 mg/kg, IG measured for 2 weeks; format: organism-based; details: in vivo, po, 336 h
# [20] = Acute toxicity in SPF ICR mouse assessed as mortality at 2 mg/kg, IG measured for 2 weeks; format: organism-based; details: in vivo, po, 336 h
# [21] = Acute toxicity in SPF ICR mouse assessed as change in body weight at 2 mg/kg, IG measured for 2 weeks; format: organism-based; details: in vivo, po, 336 h
# [22] = Acute toxicity in SPF ICR mouse assessed as abnormal behavior at 2 mg/kg, IG measured for 2 weeks; format: organism-based; details: in vivo, po, 336 h
# [23] = Acute toxicity in SPF ICR mouse assessed as distress at 2 mg/kg, IG measured for 2 weeks; format: organism-based; details: in vivo, po, 336 h
# [24] = Acute toxicity in SPF ICR mouse assessed as pathological change in heart at 2 mg/kg, IG measured on day 14; format: organism-based; details: in vivo, po, 336 h, time 14 day
# [25] = Acute toxicity in SPF ICR mouse assessed as pathological change in liver at 2 mg/kg, IG measured on day 14; format: organism-based; details: in vivo, po, 336 h, time 14 day
# [26] = Acute toxicity in SPF ICR mouse assessed as pathological change in spleen at 2 mg/kg, IG measured on day 14; format: organism-based; details: in vivo, po, 336 h, time 14 day
# [27] = Acute toxicity in SPF ICR mouse assessed as pathological change in lung at 2 mg/kg, IG measured on day 14; format: organism-based; details: in vivo, po, 336 h, time 14 day
# [28] = Acute toxicity in SPF ICR mouse assessed as pathological change in kidney at 2 mg/kg, IG measured on day 14; format: organism-based; details: in vivo, po, 336 h, time 14 day
# [29] = Acute toxicity in SPF ICR mouse assessed as pathological change in brain at 2 mg/kg, IG measured on day 14; format: organism-based; details: in vivo, po, 336 h, time 14 day
# [30] = Acute toxicity in SPF ICR mouse assessed as heart damage at 2 mg/kg, IG measured on day 14; format: organism-based; details: in vivo, po, 336 h, time 14 day
# [31] = Acute toxicity in SPF ICR mouse assessed as liver damage at 2 mg/kg, IG measured on day 14; format: organism-based; details: in vivo, po, 336 h, time 14 day
# [32] = Acute toxicity in SPF ICR mouse assessed as spleen damage at 2 mg/kg, IG measured on day 14; format: organism-based; details: in vivo, po, 336 h, time 14 day
# [33] = Acute toxicity in SPF ICR mouse assessed as lung damage at 2 mg/kg, IG measured on day 14; format: organism-based; details: in vivo, po, 336 h, time 14 day
# [34] = Acute toxicity in SPF ICR mouse assessed as kidney damage at 2 mg/kg, IG measured on day 14; format: organism-based; details: in vivo, po, 336 h, time 14 day
# [35] = Acute toxicity in SPF ICR mouse assessed as brain damage at 2 mg/kg, IG measured on day 14; format: organism-based; details: in vivo, po, 336 h, time 14 day
smiles,measurement,setting,value
Cc1cc(-c2ccc(C#N)cc2)cc(C)c1Oc1nc(NC2CCN(Cc3ccc(S(N)(=O)=O)cc3)CC2)ncc1CO,EC50,[1],3 nM
same,EC50,[2],23 nM
same,EC50,[3],15 nM
same,EC50,[4],45 nM
same,CC50 at 120 h,[5],18200 nM
same,selectivity ratio,[6],6540
same,EC50,[7],9 nM
same,EC50,[8],9 nM
same,EC50,[9],10 nM
same,EC50,[10],8 nM
same,IC50,[11],293 nM
same,IC50,Cytochrome P450 1A2,50000 nM
same,IC50,Cytochrome P450 2C19,25700 nM
same,IC50,Cytochrome P450 2C9,17600 nM
same,IC50,Cytochrome P450 2D6,50000 nM
same,IC50,Cytochrome P450 3A4 [12],50000 nM
same,IC50,Cytochrome P450 3A4 [13],50000 nM
same,IC50,[14],20000 nM
same,solubility at 24 h,[15],3520 µg/mL
same,solubility at 24 h,[16],< 1 µg/mL
same,solubility at 24 h,[17],< 1 µg/mL
same,solubility at 24 h,[18],< 1 µg/mL
same,Activity,[19],Non-toxic
same,Activity,[20],Non-toxic
same,Activity,[21],Non-toxic
same,Activity,[22],Non-toxic
same,Activity,[23],Non-toxic
same,Activity,[24],Non-toxic
same,Activity,[25],Non-toxic
same,Activity,[26],Non-toxic
same,Activity,[27],Non-toxic
same,Activity,[28],Non-toxic
same,Activity,[29],Non-toxic
same,Activity,[30],Non-toxic
same,Activity,[31],Non-toxic
same,Activity,[32],Non-toxic
same,Activity,[33],Non-toxic
same,Activity,[34],Non-toxic
same,Activity,[35],Non-toxic
